Patent US11357865B2, “Compositions containing nucleic acid nanoparticles with modular functionality” (Sixfold Bioscience Ltd., priority 2020, dated 2022)

Test system: HeLa cells
Assay: Aptamer uptake, confocal fluorescence microscopy of live HeLa cells
Type: cell-based
Conditions: 200 nM Cy5-labelled aptamer, increasing lengths of time, Lysotracker and early endosome GFP stains
Procedure: Cells were imaged by confocal microscopy after treatment with 200 nM Cy5-labelled E07 min A-1.0 aptamer (A-1.0) or 200 nM Cy5-labelled constructs (SQ1-1000-001). For aptamer uptake experiments, 1×10^4 cells were plated in each well of a μ-Slide 8 well ibiditreat chamber (IBIDI), in 300 μL DMEM containing 10% v/v FBS. For uptake experiments, 3.4×10^3 cells (HeLa, MDA-MB-231 and A549 cells) or 6.8×10^3 cells (Mcf-7) were plated in each well of a μ-Slide 18 well ibiditreat chamber (IBIDI), in 100 μL DMEM containing 10% v/v FBS. 5 hours after cells had adhered and 48 hours before imaging, media was replaced with 50 particles per cell (PPC) CellLight early endosome-GFP (Thermo Fisher Scientific) for overnight incubation at 37° C. Additionally, 200 μL DMEM aliquots containing 200 nM aptamer were added to cells at corresponding incubation time points. Subsequently, media was removed and replaced with 60 nM LysoTracker Red DND-99 (Thermo Fisher Scientific) in 100-200 μL DMEM for 1 hour at 37° C. Cells were then washed once with Hank's Balanced Salt Solution (HBSS) (Gibco). Finally, 100-200 μL imaging media (HBSS buffered with 20 mM 4-(2-hydroxyethyl)-1-piperazineethanesulfonic acid (HEPES), adjusted to pH 7.4) was added to cells. Confocal images were captured with an EVOS microscope or a Zeiss LSM510 laser scanning microscope using 60× oil objective lens. […]

A-1.0: E07min aptamer, EGFR-targeting, 5′ Cy5, 2′F U, C, SEQ ID 75 (GGACGGAUUUAAUCGCCGUAGAAAAGCAUGUCAAAGCCGGAACCGUCC; 5′ Cy5; 2′F U and C; 2′ fluorine)
intracellular localisation after internalisation: accumulate in lysosomes after internalisation
